The values that follow come from patent US20250041307A1, “Uses of Bicyclic Compounds for the Treatment of Diseases” (Athira Pharma, Inc., priority 2021, published 2025).

One assay deals with HGF/MET system. As to the kind of experiment: Phospho-MET ELISA. The note with it: HEK293 cells; with 1 ng/mL recombinant HGF; 15 minutes; augmentation of MET phosphorylation (pMET ELISA). The arrangement: key: − indicates that the compound failed to significantly augment MET phosphorylation; + indicates maximum potency at or above 100 nM; ++ indicates maximum potency at or above 10 nM; +++ indicates maximum potency at or above 1 nM; ++++ indicates maximum potency at or above 0.1 nM. It counts as cell-based. On the procedure: Compounds were screened for potency towards the HGF/MET system using phospho-MET (pMET) ELISA kits (Cell Signaling). pMET levels were detected in samples having low (1 ng/mL) and high (10 ng/mL) concentrations of HGF.
HEK293 cells were prepared by passage into 6-well multi-plates and grown at 37° C. at 5% CO2 in DMEM+10% FBS until approximately 90% confluent. Cells were then starved for at least 8 hours in serum-free growth media.
Exemplary compounds were prepared in DMEM+0.1% FBS, diluted and added to treatment media with 1 ng/mL recombinant HGF protein (R&D Systems). Cells were incubated in triplicate at 37° C. and 5% CO2 for 15 minutes. Samples were then treated with 180 μL ice-cold RIPA (radioimmunoprecipitation assay) buffer and cells were lysed on ice for 15 minutes. Lysates were cleared by centrifugation at 16,000-g for 15 minutes and the supernatant was retained. Samples were normalized using a BCA assay of lysates to determine protein concentrations across the samples.
Between 50 and 100 μg total protein lysate was loaded into ELISA wells in pMET Sandwich ELISA kit (Cell Signaling Catalog #7227C), ensuring equal protein load in each well. The ELISA was processed according to manufacturer's instructions. After color developed, absorbance was read on an optical plate reader at 450 nm.
Potency measurements were determined using peak efficacy by scaling test compound dose treatments along a scale of 1-10 between 1 ng/mL and 10 ng/mL HGF doses according to the following formula: […]
where y is the normalized data-point, x is the raw data point, A is the mean HGF at 1 ng/mL, and B is the mean HGF at 10 ng/mL.
For orientation: In an ELISA, binding on a coated surface is turned into a signal by an enzyme label.

The test system of another assay is MDCK cells. The experiment in a line: Cell scattering behavior assay. It counts as cell-based. The arrangement: key: − indicates that the compound failed to significantly promote cell scattering behavior; + indicates maximum potency at or above 100 nM; ++ indicates maximum potency at or above 10 nM; +++ indicates maximum potency at or above 1 nM; ++++ indicates maximum potency at or above 0.1 nM. The conditions noted are these: with 5 ng/mL HGF, 24 hours, normalized particle count compared to HGF treatment alone. On the procedure: MDCK cells were grown under normal conditions and observed to spontaneously form tight colonies as they proliferate. MDCK cells respond to HGF treatment by moving away from each other (scattering), which is quantified to assess the amount of HGF/MET activation in the cell population. In this experiment, MDCK cells were plated in a 96-well format, treated with HGF and exemplary compounds, fluorescently stained, imaged in large fields, and scattering behavior was quantified. Quantification was determined by analyzing the number of continuous groups of cells compared to the total stained area imaged (normalized particle counts).
MDCK cells were plated at low density in black-walled imaging plates and allowed to attach overnight at 37° C. and 5% CO2 in DMEM+10% FBS. Cells were then starved to 2 hours in DMEM without FBS (“starve media”). Samples containing exemplary compounds were prepared in DMEM without FBS and included 5 ng/mL HGF protein (“treatment media”). A control curve was also prepared for each plate using HGF concentrations of 0, 5, 10, and 20 ng/mL. Starve media was replaced with treatment media and cells were incubated for 24 hours at 37° C. and 5% CO2.
After incubation, cells were fixed by replacing treatment media with cold ethanol and incubating for 20 minutes at 4° C. Cells were then rehydrated by washing with PBS and then with stain solution (fluorescent wheat germ agglutinin; WGA488 at 20 μg/mL in PBS). Cells were incubated with stain solution 30 minutes at room temperature after which stain solution was replaced with fresh PBS.
Fields of cells were imaged using an iCyte high content imager in the green wavelength. Images were converted to binary and analyzed for particle size and particle count. For the purpose of analysis, an individual cell touching no other cells or separated colonies of cells were identified as particles, and particle counts were normalized by the total signal area to account for differences in cell number. […] Compound potency was assessed by statistical increase in normalized particle count compared to HGF treatment alone.

`CC1C(=O)N(CCc2ccccc2)CC2N(C(=O)c3ccc(OC(F)F)cc3)CCC(=O)N12` (centres unmarked) [Compound 28]: the Potency entry in the assay on HGF/MET system and with MDCK cells was “−” throughout.

`CC1C(=O)N(CCC2CCCC2)CC2N(Cc3ccc(OC(F)F)cc3)CCC(=O)N12` (centres unmarked) [Compound 38]: the Potency result in the assay on HGF/MET system is listed as “−”.

With `C=CCCN1CC2N(Cc3ccc(OC(F)F)cc3)CCC(=O)N2C(C)C1=O` (centres unmarked) [Compound 39], the Potency result in the assay on HGF/MET system and in the assay on MDCK cells was “−” each time.

As for `CCC(C)CN1CC2N(Cc3ccc(C(F)(F)F)cc3)CCC(=O)N2C(CF)C1=O` (centres unmarked) [Compound 48, 6-(fluoromethyl)-8-(2-methylbutyl)-1-(4-(trifluoromethyl)benzyl)hexahydro-4H-pyrazino[1,2-a]pyrimidine-4,7(6H)-dione], the Potency result with HGF/MET system is reported as “−”.

Consider `CC1C(=O)N(CCO)CC2N(C(=O)c3ccc(OC(F)F)cc3)CCC(=O)N12` (centres unmarked) [Compound 34, 1-(4-(difluoromethoxy)benzoyl)-8-(2-hydroxyethyl)-6-methylhexahydro-4H-pyrazino[1,2-a]pyrimidine-4,7(6H)-dione], for which the Potency entry with HGF/MET system and in the assay on MDCK cells was “−” each time.

Consider `CCCCN1CC2N(C(=O)c3ccc(C(F)(F)F)cc3)CCC(=O)N2C(C)C1=O` (centres unmarked) [Compound 21], for which the Potency entry in the assay with HGF/MET system and in the assay with MDCK cells was “−” each time.

Take `CC1C(=O)N(CC2CCCC2)CC2N(C(=O)c3ccc(OC(F)F)cc3)CCC(=O)N12` (centres unmarked) [Compound 13]: the Potency entry in the assay with HGF/MET system and in the assay on MDCK cells was “−” each time.

For `CCC(C)CN1CC2N(Cc3ccc(C(F)(F)F)c(Cl)c3)CCC(=O)N2C(C)C1=O` (centres unmarked) [Compound 43], the Potency entry with HGF/MET system and in the assay with MDCK cells was “−” each time.

`C=CCCN1CC2N(C(=O)c3ccc(OC(F)F)cc3)CCC(=O)N2C(C)C1=O` (centres unmarked) [Compound 18]: the Potency entry in the assay on HGF/MET system and with MDCK cells was “−” in each case.

`CC(C)N1CC2N(C(=O)c3ccc(C(F)(F)F)cc3)CCC(=O)N2C(C)C1=O` (centres unmarked) [Compound 24]: the Potency result with HGF/MET system and in the assay on MDCK cells was “−” in each case.

As for `CC1C(=O)N(CCC2CCC2)CC2N(Cc3ccc(F)cc3)CCC(=O)N12` (centres unmarked) [Compound 45, 8-(2-cyclobutylethyl)-1-(4-fluorobenzyl)-6-methylhexahydro-4H-pyrazino[1,2-a]pyrimidine-4,7(6H)-dione], in the assay with HGF/MET system, the Potency result is given as “−”.

As to `CCC(C)CN1CC2N(C(=O)c3ccc(Cl)cc3)CCC(=O)N2C(C)C1=O` (centres unmarked) [Compound 10, 1-(4-chlorobenzoyl)-6-methyl-8-(2-methylbutyl)hexahydro-4H-pyrazino[1,2-a]pyrimidine-4,7(6H)-dione], the Potency result with HGF/MET system and in the assay with MDCK cells was “−” in each case.

On to `CC1C(=O)N(CCC2CC2)CC2N(C(=O)c3ccc(OC(F)F)cc3)CCC(=O)N12` (centres unmarked) [Compound 31], for which the Potency result with HGF/MET system and with MDCK cells was “−” each time.

In the case of `CCCCN1CC2N(Cc3ccc(OC(F)F)cc3)CCC(=O)N2C(C)C1=O` (centres unmarked) [Compound 41], the Potency result in the assay with HGF/MET system and in the assay on MDCK cells was “−” each time.

For `CC1C(=O)N(CCS(C)(=O)=O)CC2N(C(=O)c3ccc(OC(F)F)cc3)CCC(=O)N12` (centres unmarked) [Compound 36], the Potency result in the assay on HGF/MET system and in the assay with MDCK cells was “−” throughout.

For `CC1C(=O)N(CCN)CC2N(C(=O)c3ccc(OC(F)F)cc3)CCC(=O)N12` (centres unmarked) [Compound 35, 8-(2-aminoethyl)-1-(4-(difluoromethoxy)benzoyl)-6-methylhexahydro-4H-pyrazino[1,2-a]pyrimidine-4,7(6H)-dione], the Potency entry in the assay on HGF/MET system and in the assay on MDCK cells was “−” throughout.

As for `CC1C(=O)N(CC2CCCC2)CC2N(C(=O)c3ccc(C(F)(F)F)cc3)CCC(=O)N12` (centres unmarked) [Compound 15], the Potency result with HGF/MET system and with MDCK cells was “−” in each case.

Take `CC1C(=O)N(CCc2ccncc2)CC2N(C(=O)c3ccc(OC(F)F)cc3)CCC(=O)N12` (centres unmarked) [Compound 29]: in the assay on HGF/MET system, the Potency result is “−”.

Take `CC1C(=O)N(CC2CCCO2)CC2N(C(=O)c3ccc(OC(F)F)cc3)CCC(=O)N12` (centres unmarked) [Compound 27]: in the assay on HGF/MET system, the Potency result is listed as “−”.

Take `CCC(C)CN1CC2N(Cc3ccc(OC(F)F)cc3)CCC(=O)N2C(CF)C1=O` (centres unmarked) [Compound 47, 1-(4-(difluoromethoxy)benzyl)-6-(fluoromethyl)-8-(2-methylbutyl)hexahydro-4H-pyrazino[1,2-a]pyrimidine-4,7(6H)-dione]: the Potency result in the assay on HGF/MET system is reported as “−”.

For the molecule `CC1C(=O)N(CCc2ccco2)CC2N(C(=O)c3ccc(OC(F)F)cc3)CCC(=O)N12` (centres unmarked) [Compound 25], the Potency entry in the assay on HGF/MET system and in the assay with MDCK cells was “−” in each case.

Regarding `CC(C)CN1CC2N(C(=O)c3ccc(C(F)(F)F)cc3)CCC(=O)N2C(C)C1=O` (centres unmarked) [Compound 23], the Potency result in the assay with HGF/MET system and in the assay with MDCK cells was “−” throughout.

Regarding `CCC(C)CN1CC2N(Cc3ccc(OC(F)F)cc3)CCC(=O)N2C(CC(N)=O)C1=O` (centres unmarked) [Compound 50, 2-(1-(4-(difluoromethoxy)benzyl)-8-(2-methylbutyl)-4,7-dioxooctahydro-2H-pyrazino[1,2-a]pyrimidin-6-yl)acetamide], the Potency entry in the assay on HGF/MET system and in the assay with MDCK cells was “−” in each case.

`CC1C(=O)N(CCC2CCC2)CC2N(Cc3ccc(OC(F)F)cc3)CCC(=O)N12` (centres unmarked) [Compound 40]: in the assay on HGF/MET system, the Potency entry is “−”.

Take `CC1C(=O)N(CCC2CCCC2)CC2N(Cc3ccc(F)cc3)CCC(=O)N12` (centres unmarked) [Compound 46, 8-(2-cyclopentylethyl)-1-(4-fluorobenzyl)-6-methylhexahydro-4H-pyrazino[1,2-a]pyrimidine-4,7(6H)-dione]: the Potency result in the assay with HGF/MET system and in the assay with MDCK cells was “−” in each case.

Regarding `COCCN1CC2N(C(=O)c3ccc(OC(F)F)cc3)CCC(=O)N2C(C)C1=O` (centres unmarked) [Compound 32], the Potency result with HGF/MET system and in the assay with MDCK cells was “−” each time.

Turning to `CCC(C)CN1CC2N(Cc3c[nH]c4ccccc34)CCC(=O)N2C(C)C1=O` (centres unmarked) [Compound 44], the Potency entry in the assay on HGF/MET system and in the assay on MDCK cells was “−” throughout.

Consider `CC1C(=O)N(CCc2cccs2)CC2N(C(=O)c3ccc(OC(F)F)cc3)CCC(=O)N12` (centres unmarked) [Compound 26], for which the Potency entry in the assay with HGF/MET system and in the assay with MDCK cells was “−” throughout.

As for `COCCCN1CC2N(C(=O)c3ccc(OC(F)F)cc3)CCC(=O)N2C(C)C1=O` (centres unmarked) [Compound 33], the Potency result in the assay on HGF/MET system and in the assay with MDCK cells was “−” in each case.

For `CC1C(=O)N(CC2CCC2)CC2N(C(=O)c3ccc(C(F)(F)F)cc3)CCC(=O)N12` (centres unmarked) [Compound 16], the Potency entry in the assay on HGF/MET system and with MDCK cells was “−” in each case.
